# Key:
# Penicillium funiculosum = experiment: Halo test on plasticized PVC sheeting; type: cell-based; parameters: key to growth under the test sample (GUS): +: no reduction in growth; ±: slight reduction in growth; .-+.: moderate reduction in growth; -: complete reduction in growth
# Paecilomyces varioti = experiment: Halo test on plasticized PVC sheeting; type: cell-based; parameters: key to growth under the test sample (GUS): +: no reduction in growth; ±: slight reduction in growth; .-+.: moderate reduction in growth; -: complete reduction in growth
# Sclerotinia rolfsil = experiment: Fungitoxicity in culture media (agar), growth inhibition; type: cell-based; details: 50% inhibition of growth, read-out: ED50 (the source's name)
# Method: (§1) Acetone solutions of the compound were mixed with an aliquot of distilled water and the fine suspension obtained was mixed with cooled but melted agar medium and poured into Petri dishes.
# (§2) The tested fungi were grown on the solidified media. Growth of the fungus was measured and percent inhibition was calculated by comparing with the appropriate acetone-water controls. Media were usually Martin's or potato-dextrose agar media.
# (§3) ED50 = effective dose, sufficient for the 50% inhibition of growth of the fungus, expressed in p.p.m.
# Rhizopus stolonifer = experiment: as above; type: cell-based; details: 50% inhibition of growth, read-out: ED50 (the source's name)
# Method: as §1, §2, §3
# Rhizoctonia bataticola = experiment: as above; type: cell-based; details: Macrophomina phaseolina, 50% inhibition of growth, read-out: ED50 (the source's name)
# Method: as §1, §2, §3
# Rhizoctonia solani = experiment: as above; type: cell-based; details: 50% inhibition of growth, read-out: ED50 (the source's name)
# Method: as §1, §2, §3
# [1] = system: Fusarium oxysporum sp. f.lycopersici; experiment: as above; type: cell-based; details: 50% inhibition of growth, read-out: ED50 (the source's name)
# Method: as §1, §2, §3
# Pythium aphanidermatum = experiment: as above; type: cell-based; details: 50% inhibition of growth, read-out: ED50 (the source's name)
# Method: as §1, §2, §3
# Alternaria tenuis = experiment: Halo test on plasticized PVC sheeting; type: cell-based; parameters: key to growth under the test sample (GUS): +: no reduction in growth; ±: slight reduction in growth; .-+.: moderate reduction in growth; -: complete reduction in growth; details: for Zone of growth inhibition (halo): brackets = growth partially suppressed
# Aspergillus flavus = experiment: Halo test on plasticized PVC sheeting; type: cell-based; parameters: key to growth under the test sample (GUS): +: no reduction in growth; ±: slight reduction in growth; .-+.: moderate reduction in growth; -: complete reduction in growth
# Venturia inaequalis [2] = experiment: Comparative performance of 2 compounds and 2 commercial fungicides, spray treated plants in greenhouse; type: in vivo
# Aspergillus niger = experiment: Halo test on plasticized PVC sheeting; type: cell-based; parameters: key to growth under the test sample (GUS): +: no reduction in growth; ±: slight reduction in growth; .-+.: moderate reduction in growth; -: complete reduction in growth
# Venturia inaequalis [3] = experiment: Control of apple scab in greenhouse test, apple seedlings; type: in vivo; details: Barrat & Horsfall Scale, 1 = 0%, 12 = 100% leaf scabbed, 15 days after inoculation
# [4] = system: Cladosporium cladosporoides; experiment: Halo test on plasticized PVC sheeting; type: cell-based; parameters: key to growth under the test sample (GUS): +: no reduction in growth; ±: slight reduction in growth; .-+.: moderate reduction in growth; -: complete reduction in growth
# Trichoderma viride = experiment: Halo test on plasticized PVC sheeting; type: cell-based; parameters: key to growth under the test sample (GUS): +: no reduction in growth; ±: slight reduction in growth; .-+.: moderate reduction in growth; -: complete reduction in growth
# [5] = system: mixed spore suspension of Aspergillus flavus, Aspergillus niger, Paecilomyces varioti, Penicillium funiculosum, Trichoderma viride, Alternaria tenuis …; experiment: Weight Loss Test of PVC sheeting
# [6] = Test No.1, inoculum 2.5 ×10^5 /ml, 50 p.p.m.
# [7] = Test No.1, inoculum 2.5 ×10^5 /ml, 100 p.p.m.
# [8] = Test No.1, inoculum 2.5 ×10^5 /ml, 500 p.p.m.
# [9] = Test No.2, inoculum 5.0 ×10^5 /ml, 50 p.p.m.
# [10] = Test No.2, inoculum 5.0 ×10^5 /ml, 100 p.p.m.
# [11] = Test No.2, inoculum 5.0 ×10^5 /ml, 500 p.p.m.
# [12] = 0.5% in PVC sheeting, brackets = growth partially suppressed
compound,measurement,setting,value
"O=S(=O)(CC(Cl)Cl)c1cc(Cl)ccc1Cl [Example 1, 2,5-dichlorophenyl-β,β'-dichloroethyl sulfone]",growth under the test sample (GUS),Penicillium funiculosum; 0.5% in PVC sheeting,+
same,Zone of growth inhibition (halo),Penicillium funiculosum; 1% in PVC sheeting,2.5 millimetres
same,growth under the test sample (GUS),Penicillium funiculosum; 1% in PVC sheeting,.-+.
same,Zone of growth inhibition (halo),Paecilomyces varioti; 0.5% in PVC sheeting,0 millimetres
same,growth under the test sample (GUS),Paecilomyces varioti; 0.5% in PVC sheeting,+
same,Zone of growth inhibition (halo),Paecilomyces varioti; 1% in PVC sheeting,15 millimetres
same,growth under the test sample (GUS),Paecilomyces varioti; 1% in PVC sheeting,-
same,IC50,Sclerotinia rolfsil,10 µg/mL
same,IC50,Rhizopus stolonifer,50 µg/mL
same,IC50,Rhizoctonia bataticola,5 µg/mL
same,IC50,Rhizoctonia solani,5 µg/mL
same,IC50,[1],50 µg/mL
same,IC50,Pythium aphanidermatum,10 µg/mL
same,growth under the test sample (GUS),Alternaria tenuis; 0.5% in PVC sheeting,-
same,Zone of growth inhibition (halo),Alternaria tenuis; 0.5% in PVC sheeting,11 millimetres
same,growth under the test sample (GUS),Alternaria tenuis; 1% in PVC sheeting,-
same,Zone of growth inhibition (halo),Alternaria tenuis; 1% in PVC sheeting,17 millimetres
same,Zone of growth inhibition (halo),Aspergillus flavus; 0.5% in PVC sheeting,0 millimetres
same,growth under the test sample (GUS),Aspergillus flavus; 0.5% in PVC sheeting,.-+.
same,Zone of growth inhibition (halo),Aspergillus flavus; 1% in PVC sheeting,0 millimetres
same,growth under the test sample (GUS),Aspergillus flavus; 1% in PVC sheeting,.-+.
same,Disease control,Venturia inaequalis [2]; [6],63.6%
same,Disease control,Venturia inaequalis [2]; [7],97.4%
same,Disease control,Venturia inaequalis [2]; [8],100%
same,Disease control,Venturia inaequalis [2]; [9],98.2%
same,Disease control,Venturia inaequalis [2]; [10],99.5%
same,Disease control,Venturia inaequalis [2]; [11],100%
same,growth under the test sample (GUS),Aspergillus niger; 0.5% in PVC sheeting,.-+.
same,Zone of growth inhibition (halo),Aspergillus niger; 1% in PVC sheeting,6 millimetres
same,growth under the test sample (GUS),Aspergillus niger; 1% in PVC sheeting,-
same,Mean disease severity,Venturia inaequalis [3]; 50 p.p.m.,3.5
same,Mean disease severity,Venturia inaequalis [3]; 100 p.p.m.,3.0
same,Mean disease severity,Venturia inaequalis [3]; 500 p.p.m.,1.0
same,growth under the test sample (GUS),[4]; 0.5% in PVC sheeting,-
same,Zone of growth inhibition (halo),[4]; [12],5 millimetres
same,Zone of growth inhibition (halo),[4]; 1% in PVC sheeting,12 millimetres
same,growth under the test sample (GUS),[4]; 1% in PVC sheeting,-
same,Zone of growth inhibition (halo),Trichoderma viride; 0.5% in PVC sheeting,0 millimetres
same,growth under the test sample (GUS),Trichoderma viride; 0.5% in PVC sheeting,+
same,Zone of growth inhibition (halo),Trichoderma viride; 1% in PVC sheeting,0 millimetres
same,growth under the test sample (GUS),Trichoderma viride; 1% in PVC sheeting,+
"O=S(=O)(CC(Cl)(Cl)Cl)c1cc(Cl)ccc1Cl [Example 2, 2,5-dichlorophenyl,β,β',β""-trichloroethyl sulfone]",growth under the test sample (GUS),Penicillium funiculosum; 0.5% in PVC sheeting,+
same,Zone of growth inhibition (halo),Penicillium funiculosum; [12],0 millimetres
same,Zone of growth inhibition (halo),Penicillium funiculosum; 1% in PVC sheeting,0 millimetres
same,growth under the test sample (GUS),Penicillium funiculosum; 1% in PVC sheeting,+
same,Zone of growth inhibition (halo),Paecilomyces varioti; 0.5% in PVC sheeting,0 millimetres
same,growth under the test sample (GUS),Paecilomyces varioti; 0.5% in PVC sheeting,+
same,Zone of growth inhibition (halo),Paecilomyces varioti; 1% in PVC sheeting,0 millimetres
same,growth under the test sample (GUS),Paecilomyces varioti; 1% in PVC sheeting,+
same,IC50,Sclerotinia rolfsil,10 µg/mL
same,IC50,Rhizoctonia bataticola,10 µg/mL
same,IC50,Rhizoctonia solani,10 µg/mL
same,IC50,[1],50 µg/mL
same,IC50,Pythium aphanidermatum,5 µg/mL
same,growth under the test sample (GUS),Alternaria tenuis; 0.5% in PVC sheeting,.-+.
same,growth under the test sample (GUS),Alternaria tenuis; 1% in PVC sheeting,-
same,Zone of growth inhibition (halo),Aspergillus flavus; 0.5% in PVC sheeting,0 millimetres
same,growth under the test sample (GUS),Aspergillus flavus; 0.5% in PVC sheeting,+
same,Zone of growth inhibition (halo),Aspergillus flavus; 1% in PVC sheeting,0 millimetres
same,growth under the test sample (GUS),Aspergillus flavus; 1% in PVC sheeting,+
same,growth under the test sample (GUS),Aspergillus niger; 0.5% in PVC sheeting,+
same,Zone of growth inhibition (halo),Aspergillus niger; [12],0 millimetres
same,Zone of growth inhibition (halo),Aspergillus niger; 1% in PVC sheeting,0 millimetres
same,growth under the test sample (GUS),Aspergillus niger; 1% in PVC sheeting,+
same,Mean disease severity,Venturia inaequalis [3]; 50 p.p.m.,5.0
same,Mean disease severity,Venturia inaequalis [3]; 100 p.p.m.,2.9
same,Mean disease severity,Venturia inaequalis [3]; 500 p.p.m.,1.3
same,growth under the test sample (GUS),[4]; 0.5% in PVC sheeting,.-+.
same,Zone of growth inhibition (halo),[4]; 1% in PVC sheeting,8 millimetres
same,growth under the test sample (GUS),[4]; 1% in PVC sheeting,-
same,Zone of growth inhibition (halo),Trichoderma viride; 0.5% in PVC sheeting,0 millimetres
same,growth under the test sample (GUS),Trichoderma viride; 0.5% in PVC sheeting,+
same,Zone of growth inhibition (halo),Trichoderma viride; 1% in PVC sheeting,0 millimetres
same,growth under the test sample (GUS),Trichoderma viride; 1% in PVC sheeting,+
"O=S(=O)(CC(Cl)c1ccccc1)c1cc(Cl)ccc1Cl (stereo not drawn) [Example 5, 2,5-dichlorophenyl-β-chloro-β-phenylethyl sulfone]",IC50,Rhizoctonia bataticola,50 µg/mL
same,IC50,Rhizoctonia solani,20 µg/mL
same,IC50,[1],> 50 µg/mL
same,Mean disease severity,Venturia inaequalis [3]; 50 p.p.m.,6.0
same,Mean disease severity,Venturia inaequalis [3]; 100 p.p.m.,2.3
same,Mean disease severity,Venturia inaequalis [3]; 500 p.p.m.,3.5
"O=S(=O)(CC(Cl)Br)c1cc(Cl)ccc1Cl (stereo not drawn) [Example 6, 2,5-dichlorophenyl-β-chloro-β-bromoethyl sulfone]",IC50,Rhizoctonia bataticola,20 µg/mL
same,IC50,Rhizoctonia solani,10 µg/mL
same,IC50,[1],> 50 µg/mL
same,Mean disease severity,Venturia inaequalis [3]; 50 p.p.m.,4.0
same,Mean disease severity,Venturia inaequalis [3]; 100 p.p.m.,1.0
same,Mean disease severity,Venturia inaequalis [3]; 500 p.p.m.,1.0
"O=S(=O)(CC(Cl)Cl)c1cc(Br)ccc1Br [Example 7, 2,5-dibromophenyl-β,β'-dichloroethyl sulfone]",IC50,Rhizopus stolonifer,50 µg/mL
same,IC50,Rhizoctonia bataticola,20 µg/mL
same,IC50,Rhizoctonia solani,5 µg/mL
same,IC50,[1],50 µg/mL
same,Mean disease severity,Venturia inaequalis [3]; 50 p.p.m.,5.7
same,Mean disease severity,Venturia inaequalis [3]; 100 p.p.m.,5.3
same,Mean disease severity,Venturia inaequalis [3]; 500 p.p.m.,5.0
"O=S(=O)(CC(Cl)(Cl)Cl)c1cc(Br)ccc1Br [Example 8, 2,5-dibromophenyl-β,β',β""-trichloroethyl sulfone]",Disease control,Venturia inaequalis [2]; [6],86.4%
same,Disease control,Venturia inaequalis [2]; [7],97.4%
same,Disease control,Venturia inaequalis [2]; [8],100%
same,Disease control,Venturia inaequalis [2]; [9],99.9%
same,Disease control,Venturia inaequalis [2]; [10],100%
same,Disease control,Venturia inaequalis [2]; [11],99.9%
same,Mean disease severity,Venturia inaequalis [3]; 50 p.p.m.,6.0
same,Mean disease severity,Venturia inaequalis [3]; 100 p.p.m.,2.0
same,Mean disease severity,Venturia inaequalis [3]; 500 p.p.m.,1.3
"[Cl][Hg][Cl] [mercuric chloride, reference compound]",changes in weight (in words),[5],only negligible changes in weight

# Source: patent US4206235A, “Novel 2,5-dihalophenyl-β-substituted sulfone fungicides” (priority 1976, dated 1980)
